According to US11459313B2, “Aziridinyl and amino dimeric naphthoquinone compounds and use for acute myeloid leukemia” (University of Maryland, Baltimore, priority 2016, dated 2022):
Entries after “also recorded” stand apart in the source; their conditions may differ. Where two headings read alike, the source gives them in different places.

What was measured:
AML cells [1] = assay: Clonogenicity of AML cells; type: cell-based, human
Experimental: MOLM-14 and THP-1 were treated with either DMSO control or mono-aziridine dimeric naphthoquinone or bis-aziridinyl dimeric naphthoquinone compounds at concentrations of 0.1, 1, 10 and 100 μM (micromolar) for 24 hours. The cells then were washed with growth medium and resuspended in growth medium and methylcellulose with or without DMSO or the treatment compounds. After 7 or 13 days (MOLM-14 or THP-1, respectively), treatment was terminated by addition of 1.0 mg/mL, iodonitrotetrazolium chloride (INT; Sigma Aldrich®) and read 24 hours later with an automated colony counter (Symbiosis®). Data were analyzed and graphed using GraphPad Prism® software.
(§1) Two AML cell lines (MV4-11 & MOLM14) were treated with increasing doses of the clinically used naphthoquinones, atovaquone and vitamin K, as well as with Compound 102; and IC50 curves were generated with respect to cell proliferation as described above.

AML cells [2] = assay: Cell proliferation assays, AML cells (lines not given singly); type: cell-based, human; details: MV4-11 and MOLM14, proliferation IC50
Experimental: (§2) Primary AML cells from patients and cell lines were seeded into 96-well plates the afternoon prior to treatment. Eighteen hours later, amino-dimeric naphthoquinone Compounds 106, 101, and 114 were semi-serially diluted in dimethyl sulfoxide (DMSO) and then growth medium, and added to the cells. In order to quantitate proliferation of metabolically active cells, plates were incubated for 72 hours for cell lines and 48 hours for primary AML cells prior to addition of water-soluble tetrazolium (WST-1) (Clontech®). Plates were read after four additional hours of incubation at 37° C. using a Bio-Tek Synergy® HT plate reader (Bio-Tele®). Data were analyzed and graphed using GraphPad Prism® Software (GraphPad®). IC50 was defined as the concentration that decreases viable cell numbers by 50%. IC50 values were calculated as mean±standard deviation from at least two independent experiments. If availability of primary blasts was limited, the IC50 was obtained from a single experiment.
as §1

IDO-1 = IDO-1 (Homo sapiens, UniProt P14902); assay: IDO1 activity assay; type: biochemical
IDO-1, sequence (P14902 whole entry, species assumed): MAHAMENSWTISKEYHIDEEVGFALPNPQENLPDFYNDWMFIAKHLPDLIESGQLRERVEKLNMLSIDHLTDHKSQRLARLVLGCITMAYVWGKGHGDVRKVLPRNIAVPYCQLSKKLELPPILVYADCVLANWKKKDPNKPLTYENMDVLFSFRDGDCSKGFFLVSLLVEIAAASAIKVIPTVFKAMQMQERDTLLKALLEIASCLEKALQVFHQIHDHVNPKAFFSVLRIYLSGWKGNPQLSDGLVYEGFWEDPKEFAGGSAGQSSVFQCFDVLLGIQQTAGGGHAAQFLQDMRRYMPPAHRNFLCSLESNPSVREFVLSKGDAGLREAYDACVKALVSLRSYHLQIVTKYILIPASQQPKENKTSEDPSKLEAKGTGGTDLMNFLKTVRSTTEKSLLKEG
From the text: (§3) Methods were as described and according to known methods.

AML blasts = assay: γH2AX foci in treated AML blasts; type: cell-based
MOLM-14 cells = assay: WST-1 cell proliferation assay, MOLM-14; type: cell-based, human; details: Homo sapiens, cell proliferation
Experimental: (§4) Cell lines were seeded into 96-well plates the afternoon prior to treatment. Approximately 18 hours later, bis and mono-aziridine dimeric naphthoquinone compounds were semi-serially diluted in dimethyl sulfoxide (DMSO) and then growth medium, and added to cells. Plates were incubated for 72 hours prior to addition of WST-1 (Promega®). Plates were read after 4 additional hours of incubation at 37° C. using a Bio-Tek Synergy® HT plate reader (Bio-Tek®). Data were analyzed and graphed using GraphPad Prism® Software (Graph Pad®).
as §2
To investigate antiproliferative activity of amino-dimeric naphthoquinones against AML cells, an MTT-like cell proliferation assay was performed in the AML cell lines using WST-1 (water soluble tetrazolium salts; Promega®). MOLM-14 and AML-D cells, as well as normal hematopoietic bone marrow cells from a healthy donor, were exposed to a range of concentrations of Compound 101. Human leukemia cells were cultured in the presence of the compound for 72 hours (48 hours for primary cells) and WST-1 reagent was then added. The cells then were monitored for cell growth or the number of cells proliferating and the IC50 calculated. The IC50 is the concentration at which 50% of the cells are not proliferating compared to control cells treated with vehicle. See FIG. 2A, FIG. 2B, and FIG. 2C for representative graphs of these IC50 determinations.

MV4-11 cells [3] = assay: Cellular reactive oxygen species (H2DCFA), MV4-11; type: cell-based, human
Experimental: MOLM-14 and THP-1 cells in logarithmic growth phase were centrifuged and resuspended in PBS at one million cells per milliliter (mL) of medium. Cells were preloaded with 2′,7′-dichlorodihydrofluorescein diacetate (H2DCFA, Life Technologies®) at a final concentration of 2 μM and incubated at 37° C. in the dark for 25 minutes. Cells were centrifuged and resuspended at one million per mL in phenol red-free RPMI plus 10% FBS and incubated at 37° C. in the dark for 25 minutes. Treatments were prepared at 2× concentrations of […] in complete phenol red-free RPMI and added to each well to yield 1× concentrations of 20, 10, 2, or 0.5 μM. Cells were incubated in the dark at 37° C. and measurement of ROS was performed with a Bio-tek® Synergy HT plate reader at various time points post treatment.
as §1
The amount of reactive oxygen species (ROS) that cells produced upon treatment with Compound 102 then was examined. See results in FIG. 9B. The cells were loaded with the ROS dye H2DCFA and subsequently plated into 96-well plates. […] The relative fluorescence units (RFU) were read at various time points. […]

IDO-2 = biological target: T1, IDO-2 (Homo sapiens, UniProt Q6ZQW0); assay: IDO-2 activity; type: biochemical
T1 sequence (Q6ZQW0 1-407): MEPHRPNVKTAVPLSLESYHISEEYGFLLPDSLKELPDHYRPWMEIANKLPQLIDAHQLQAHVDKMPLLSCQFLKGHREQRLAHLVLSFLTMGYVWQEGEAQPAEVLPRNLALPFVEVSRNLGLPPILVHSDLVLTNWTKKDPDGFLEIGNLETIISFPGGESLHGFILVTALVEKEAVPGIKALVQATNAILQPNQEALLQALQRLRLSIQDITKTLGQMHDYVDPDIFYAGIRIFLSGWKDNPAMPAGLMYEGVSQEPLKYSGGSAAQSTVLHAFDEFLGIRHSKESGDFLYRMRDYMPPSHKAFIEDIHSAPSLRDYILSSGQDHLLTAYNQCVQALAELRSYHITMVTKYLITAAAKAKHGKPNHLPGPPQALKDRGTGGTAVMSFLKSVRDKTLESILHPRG
From the text: as §3

MV4-11 cells [4] = assay: Cell survival assay (trypan blue exclusion), MV4-11; type: cell-based, human
Experimental: MOLM-.14 and THP-1 cells were seeded in 96-well plates and treated with DMSO, mono- and bis-aziridinyl dimeric naphthoquinone compounds, or dimethylamine dimeric naphthoquinone Compound 114 as previously described. Cells were incubated for 72 hours, and then counted using trypan blue exclusion on the Countess® automated cell counter (Life Technologies®). Cell counts were performed in duplicates, and the averages were graphed using GraphPad Prism® software (GraphPad®).
Cell survival was determined using trypan blue exclusion as described above, in which cells are plated and the following day treated similarly to the proliferation assay. Compound 102 (also referred to here as “66”) was effective in decreasing cell number at increasing concentrations of compound in MV4-11 cells.

[5] = biological target: tryptophan-2,3-dioxygenase (TDO) (Homo sapiens, UniProt P48775); assay: TDO activity; type: biochemical
tryptophan-2,3-dioxygenase (TDO), sequence (P48775 whole entry, species assumed): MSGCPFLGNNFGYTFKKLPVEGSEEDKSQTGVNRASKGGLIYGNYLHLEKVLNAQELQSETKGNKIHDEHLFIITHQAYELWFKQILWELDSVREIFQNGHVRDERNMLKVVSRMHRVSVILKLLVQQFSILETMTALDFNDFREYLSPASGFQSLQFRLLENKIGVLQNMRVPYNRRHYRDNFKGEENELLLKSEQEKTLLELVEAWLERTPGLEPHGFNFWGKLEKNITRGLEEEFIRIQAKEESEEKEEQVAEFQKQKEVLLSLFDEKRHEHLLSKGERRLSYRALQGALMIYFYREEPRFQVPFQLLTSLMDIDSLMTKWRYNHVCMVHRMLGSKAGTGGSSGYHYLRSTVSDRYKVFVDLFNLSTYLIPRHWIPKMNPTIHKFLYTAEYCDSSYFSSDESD
From the text: as §3

MV4-11 cells [6] = assay: WST-1 cell proliferation assay, MV4-11; type: cell-based, human; details: Homo sapiens, cell proliferation
Experimental: as §4, §2

inhibition at 1 µM (IDO-1): 37%
inhibition at 10 µM (IDO-1): 79%
IC50 (MOLM-14 cells; MOLM-14, Table 2, read-out: MOLM14 IC50): 0.16 ± 0.01 µM
IC50 (MOLM-14 cells; MOLM-14, Table 3, read-out: MOLM14 IC50): 0.16 ± 0.01 µM
IC50 (MOLM-14 cells; MOLM-14, Table 7, read-out: IC50 (μM) MOLM-14): 0.16 µM
inhibition of IDO-2 (IDO-2): not
inhibition of TDO [5]: not
IC50 (MV4-11 cells [6]; MV4-11, Table 2, read-out: MV411 IC50): 0.2 ± 0.2 µM
IC50 (MV4-11 cells [6]; MV4-11, Table 3, read-out: MV411 IC50): 0.2 ± 0.2 µM
IC50 (MV4-11 cells [6]; MV4-11, Table 7, read-out: IC50 (μM) MV411): 0.2 µM
SMILES: O=C1C(NCCO)=C(C2=C(NCCO)C(=O)c3ccccc3C2=O)C(=O)c2ccccc21 [Compound 102, 3,3′-[(2-hydroxyethyl)amino]-2,2′-binaphthalenyl-1,1′,4,4′-tetrone]
inhibition of clonogenicity of AML cells (AML cells [1]): effectively inhibited clonogenicity of AML cells in a dose-dependent manner; also recorded: potent (nanomolar) inhibition of colony formation
potency relative to other naphthoquinones (atovaquone, vitamin K) against AML cells (AML cells [2]): 25-30 fold
DNA damage (γH2AX foci) (AML blasts): concomitant increase in DNA damage
ROS production (MV4-11 cells [3]; Example 13, cells not named in the block, 2-6 hours): dose-dependent increase in ROS production
ROS levels, MV4-11 (MV4-11 cells [3]; at IC50 concentration): ROS levels significantly peaked after 2 hours and returned to baseline within 24 hours
cell survival, MV4-11 (MV4-11 cells [4]): dose-dependent reduction in cell survival
